According to ChEMBL document CHEMBL3727356, “Therapeutic compounds and compositions” (2014):

How the values were obtained:
[1] = biological target: T1, Pyruvate kinase PKLR (Homo sapiens, UniProt P30613); assay: Activation of wild type PKR (unknown origin) by cell based assay
[2] = biological target: Pyruvate kinase PKLR (Homo sapiens, UniProt P30613, R532W); assay: Activation of PKR R532W mutant (unknown origin) incubated for 60 mins in presence of ADP, PEP and NADH by Spectraax microplate reader based assay
[3] = biological target: T1, Pyruvate kinase PKLR; assay: Activation of wild type PKR (unknown origin) incubated for 60 mins in presence of ADP, PEP and NADH by Spectraax microplate reader based assay

Chain of Pyruvate kinase PKLR (Homo sapiens, UniProt P30613, R532W) (P30613 whole entry R532W): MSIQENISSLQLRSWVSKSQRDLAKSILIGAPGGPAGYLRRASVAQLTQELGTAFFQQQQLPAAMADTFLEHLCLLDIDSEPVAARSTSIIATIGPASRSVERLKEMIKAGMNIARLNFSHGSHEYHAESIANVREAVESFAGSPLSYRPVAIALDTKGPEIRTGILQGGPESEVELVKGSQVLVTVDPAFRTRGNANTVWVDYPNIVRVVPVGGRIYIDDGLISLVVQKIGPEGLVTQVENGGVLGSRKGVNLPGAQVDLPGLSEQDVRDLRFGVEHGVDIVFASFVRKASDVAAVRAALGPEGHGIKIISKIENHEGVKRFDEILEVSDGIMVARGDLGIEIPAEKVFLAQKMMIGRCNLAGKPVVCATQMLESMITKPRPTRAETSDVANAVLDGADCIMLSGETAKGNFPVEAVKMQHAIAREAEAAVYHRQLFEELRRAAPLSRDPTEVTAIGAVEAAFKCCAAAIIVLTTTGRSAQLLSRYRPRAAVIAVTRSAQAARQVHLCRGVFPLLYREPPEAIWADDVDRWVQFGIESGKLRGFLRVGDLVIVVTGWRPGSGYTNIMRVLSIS
T1 sequence (P30613 whole entry): as the sequence (P30613 whole entry R532W) above, with W532R counted along it

AC50 [1] [nM] | AC50 [2] [nM] | AC50 [3] [nM] | SMILES
< 100 | < 100 | < 100 | O=C(c1ccc(NS(=O)(=O)c2cccc3cccnc23)cc1F)N1CCC(O)(c2ccccc2Cl)CC1
< 100 | < 100 | < 100 | O=C(c1ccc(NS(=O)(=O)c2cccc3cccnc23)cc1)N1CCC(O)(c2cc(F)ccc2Cl)CC1
< 100 | < 100 | < 100 | O=C(c1ccc(NS(=O)(=O)c2cccc3scnc23)cc1)N1CCC(O)(c2sncc2Cl)CC1
< 100 | < 100 | < 100 | O=C(c1ccc(NS(=O)(=O)c2cccc3cccnc23)cc1)N1CCC(O)(c2ccccc2F)CC1
< 100 | < 100 | < 100 | O=C(c1ccc(NS(=O)(=O)c2cccc3cccnc23)cc1)N1CCC(O)(c2cnsc2)CC1
< 100 | < 100 | < 100 | Cc1cc(NS(=O)(=O)c2cccc3cccnc23)ccc1C(=O)N1CCC(O)(c2ccccc2Cl)CC1
< 100 | < 100 |  | O=C(c1ccc(NS(=O)(=O)c2cccc3cccnc23)cc1)N1CCC(O)(c2ccccc2O)CC1
< 100 | < 100 | < 100 | COc1cccc(CC2(O)CCN(C(=O)c3ccc(NS(=O)(=O)c4cccc5cccnc45)cc3)CC2)c1
< 100 | < 100 | < 100 | CCCC1(O)CCN(C(=O)c2ccc(NS(=O)(=O)c3cccc4cccnc34)cc2)CC1
< 100 | < 100 | < 100 | CC(C)(C)C1(O)CCN(C(=O)c2ccc(NS(=O)(=O)c3cccc4cccnc34)cc2)CC1
< 100 |  |  | O=C(c1ccc(NS(=O)(=O)c2cccc3nccnc23)cc1)N1CCC(O)(c2sncc2Cl)CC1
< 100 | < 100 | < 100 | CC(C)C1(O)CCN(C(=O)c2ccc(NS(=O)(=O)c3cccc4cccnc34)cc2)CC1
< 100 | < 100 | < 100 | O=C(c1ccc(NS(=O)(=O)c2cccc3cccnc23)cc1)N1CCC(O)(CCC(F)F)CC1
< 100 |  | < 100 | Nc1c(O)cccc1S(=O)(=O)Nc1ccc(C(=O)N2CCC(O)(c3ccccc3Cl)CC2)cc1
< 100 | < 100 | < 100 | O=C(c1ccc(NS(=O)(=O)c2cccc3nccnc23)cc1)N1CCC(O)(CCC(F)=C(F)F)CC1
< 100 | < 100 | < 100 | Cc1ncccc1C1(O)CCN(C(=O)c2ccc(NS(=O)(=O)c3cccc4cccnc34)cc2)CC1
< 100 | < 100 | < 100 | O=C(c1ccc(NS(=O)(=O)c2cccc3cccnc23)cc1)N1CCC(O)(c2ccncc2Cl)CC1
< 100 | < 100 | < 100 | O=C(c1ccc(NS(=O)(=O)c2cccc3cccnc23)cc1)N1CCC(O)(c2ncccc2C(F)(F)F)CC1
< 100 |  |  | CC(C)CC1(OC(=O)OCOP(=O)(O)O)CCN(C(=O)c2ccc(NS(=O)(=O)c3cccc4scnc34)cc2)CC1
< 100 | < 100 | < 100 | O=C(c1ccc(NS(=O)(=O)c2cccc3c2OCCO3)cc1)N1CCC(O)(Cc2ccccc2)CC1
< 100 |  | < 100 | CC(F)(F)CCC1(O)CCN(C(=O)c2ccc(NS(=O)(=O)c3cccc4nccnc34)cc2)CC1
 | < 100 | < 100 | O=C(c1ccc(NS(=O)(=O)c2cccc3cccnc23)cc1)N1CCC(O)(c2ncccc2F)CC1

AC50 [1] [nM] | AC50 [2] [nM] | AC50 [3] [nM] | SMILES
< 100 | < 100 |  | CC(C)(F)CC1(O)CCN(C(=O)c2ccc(NS(=O)(=O)c3cccc4scnc34)cc2)CC1
< 100 | < 100 |  | Cn1cc(C2(O)CCN(C(=O)c3ccc(NS(=O)(=O)c4cccc5scnc45)cc3)CC2)cn1
< 100 | < 100 | < 100 | Cn1nccc1CC1(O)CCN(C(=O)c2ccc(NS(=O)(=O)c3cccc4nccnc34)cc2)CC1
< 100 |  |  | CC(C)CC1(OC(=O)OCOP(=O)(O)O)CCN(C(=O)c2ccc(NS(=O)(=O)c3cccc4nccnc34)cc2)CC1
< 100 | < 100 | < 100 | O=C(c1ccc(NS(=O)(=O)c2cccc3cccnc23)cc1)N1CCC(O)(Cc2cccc(F)n2)CC1
 | < 100 | < 100 | O=C(c1ccc(NS(=O)(=O)c2cccc3scnc23)cc1)N1CCC(O)(CC2CC2(F)F)CC1 (centres undefined)
 | < 100 | < 100 | CC(C)CC1(O)CCN(C(=O)c2ccc(NS(=O)(=O)c3cc(F)cc4scnc34)cc2)CC1
< 100 | < 100 | < 100 | O=C(c1ccc(NS(=O)(=O)c2cccc3cccnc23)cc1)N1CCC(O)(c2cccnc2C(F)(F)F)CC1
 | < 100 | < 100 | Nc1nc2c(S(=O)(=O)Nc3ccc(C(=O)N4CCC(O)(CCC(F)(F)F)CC4)cc3)cccc2s1
 | < 100 | < 100 | Cc1ccc(C2(O)CCN(C(=O)c3ccc(NS(=O)(=O)c4cccc5cccnc45)cc3)CC2)c(Cl)c1
< 100 | < 100 | < 100 | O=C(c1ccc(NS(=O)(=O)c2cccc3cccnc23)cc1)N1CCC(O)(Cc2cccnc2F)CC1
< 100 | < 100 | < 100 | CS(=O)(=O)c1ccccc1C1(O)CCN(C(=O)c2ccc(NS(=O)(=O)c3cccc4cccnc34)cc2)CC1
< 100 |  | < 100 | CC(C)CC1(O)CCN(C(=O)c2ccc(NS(=O)(=O)c3cccc(O)c3N)cc2)CC1
< 100 | < 100 | < 100 | O=C(c1ccc(NS(=O)(=O)c2cccc3cccnc23)cc1)N1CCC(O)(CC2CC2(F)F)CC1 (centres undefined)
< 100 | < 100 | < 100 | Cc1noc(C)c1CC1(O)CCN(C(=O)c2ccc(NS(=O)(=O)c3cccc4nccnc34)cc2)CC1
 | < 100 | < 100 | CC(F)(F)CCC1(O)CCN(C(=O)c2ccc(NS(=O)(=O)c3cccc4scnc34)cc2)CC1
< 100 | < 100 | < 100 | O=C(c1ccc(NS(=O)(=O)c2cccc3cccnc23)cc1)N1CCC(O)(c2cccc(F)c2)CC1
 | < 100 | < 100 | O=C(c1ccc(NS(=O)(=O)c2cc(F)cc3scnc23)cc1)N1CCC(O)(c2ccccc2Cl)CC1
 | < 100 | < 100 | O=C(c1ccc(NS(=O)(=O)c2cc(F)cc3cccnc23)cc1)N1CCC(O)(c2ccccc2)CC1
< 100 | < 100 | < 100 | Cc1cccnc1C1(O)CCN(C(=O)c2ccc(NS(=O)(=O)c3cccc4cccnc34)cc2)CC1
< 100 | < 100 | < 100 | O=C(c1ccc(NS(=O)(=O)c2cccc3c(O)ncnc23)cc1)N1CCC(O)(c2cccc(F)c2F)CC1
 | < 100 | < 100 | O=C(c1ccc(NS(=O)(=O)c2cc(F)cc3cccnc23)cc1)N1CCC(O)(c2ccccc2Cl)CC1

AC50 [1] [nM] | AC50 [2] [nM] | AC50 [3] [nM] | SMILES
 | < 100 | < 100 | O=C(c1ccc(NS(=O)(=O)c2cccc3scnc23)cc1)N1CCC(O)(CCC(F)=C(F)F)CC1
 | < 100 | < 100 | O=C(c1ccc(NS(=O)(=O)c2cccc3nccnc23)cc1)N1CCC(O)(CC2CC2)CC1
 | > 10000 | > 10000 | CC(C)CC1(OP(=O)(O)O)CCN(C(=O)c2ccc(NS(=O)(=O)c3cccc4scnc34)cc2)CC1
 | < 100 | < 100 | O=C(c1ccc(NS(=O)(=O)c2ccc(F)c3cccnc23)cc1)N1CCC(O)(Cc2ccccc2C(F)(F)F)CC1
 | < 100 | < 100 | O=C(c1ccc(NS(=O)(=O)c2cccc3ccccc23)cc1)N1CCC(O)(c2ccccc2Cl)CC1
 | < 100 | < 100 | Cc1cc(C2(O)CCN(C(=O)c3ccc(NS(=O)(=O)c4cccc5nccnc45)cc3)CC2)sn1
 | < 100 | < 100 | O=C(c1ccc(NS(=O)(=O)c2cccc3scnc23)cc1)N1CCC(O)(c2ccccc2C(F)F)CC1
 | < 100 | < 100 | COc1ncccc1C1(O)CCN(C(=O)c2ccc(NS(=O)(=O)c3cccc4cccnc34)cc2)CC1
 | < 100 | < 100 | Cc1cccc(CC2(O)CCN(C(=O)c3ccc(NS(=O)(=O)c4cccc5cccnc45)cc3)CC2)n1
 | < 100 | < 100 | C=C(C)CC1(O)CCN(C(=O)c2ccc(NS(=O)(=O)c3cccc4scnc34)cc2)CC1
< 100 |  | < 100 | CS(=O)(=O)c1cccc(C2(O)CCN(C(=O)c3ccc(NS(=O)(=O)c4cccc5cccnc45)cc3)CC2)c1
 | < 100 | < 100 | O=C(c1ccc(NS(=O)(=O)c2cccc3nccnc23)cc1)N1CCC(O)(Cc2cn[nH]c2)CC1
 | > 10000 | > 10000 | CC(C)(O)CCCC1(O)CCN(C(=O)c2ccc(NS(=O)(=O)c3cccc4nccnc34)cc2)CC1
< 100 |  |  | O=C(c1ccc(NS(=O)(=O)c2cccc3nccnc23)cc1)N1CCC(O)(c2ccccc2)CC1
 | < 100 | < 100 | Cc1n[nH]c(C)c1CC1(O)CCN(C(=O)c2ccc(NS(=O)(=O)c3cccc4scnc34)cc2)CC1
 | < 100 | < 100 | Cc1noc(C)c1CC1(O)CCN(C(=O)c2ccc(NS(=O)(=O)c3cccc4scnc34)cc2)CC1
 | < 100 | < 100 | O=C(c1ccc(NS(=O)(=O)c2cccc3cccnc23)c2ccccc12)N1CCC(O)(c2ccccc2Cl)CC1
 | < 100 | < 100 | O=C(c1ccc(NS(=O)(=O)c2cccc3cccnc23)cc1)N1CCC(O)(Cc2cccnc2)CC1
 | < 100 | < 100 | Cc1nc(C(=O)N2CCC(O)(c3ccccc3Cl)CC2)ccc1NS(=O)(=O)c1cccc2cccnc12
 | > 10000 | > 10000 | O=C(c1ccc(NS(=O)(=O)c2cccc3cnccc23)cc1)N1CCC(O)(c2ccccc2)CC1
 | < 100 | < 100 | CC(C)CC1(CO)CCN(C(=O)c2ccc(NS(=O)(=O)c3cccc4nccnc34)cc2)CC1
 | < 100 | < 100 | O=C(c1ccc(NS(=O)(=O)c2cccc3scnc23)cc1)N1CCC(O)(CC2CC2)CC1
